# Data as given in patent EP2948433B1, “ATGLISTATIN AS LIPASE INHIBITOR” (Technische Universität Graz, priority 2013, dated 2014).
# Marks after values point to notes of the source that are not given here.
# Assays:
# recombinant ATGL = target: T1, recombinant ATGL (Mus musculus, UniProt Q8BJ56); assay: TG hydrolase activity of E. coli lysates overexpressing recombinant strep-tagged ATGL and CGI-58, radiolabeled triolein substrate; format: biochemical
# T1 construct: Strep-tag; made in house; host or cells: E. coli (XL-1), vector pASK-IBA5+; crude lysate supernatant, not purified
# T1 sequence (Q8BJ56 1-486): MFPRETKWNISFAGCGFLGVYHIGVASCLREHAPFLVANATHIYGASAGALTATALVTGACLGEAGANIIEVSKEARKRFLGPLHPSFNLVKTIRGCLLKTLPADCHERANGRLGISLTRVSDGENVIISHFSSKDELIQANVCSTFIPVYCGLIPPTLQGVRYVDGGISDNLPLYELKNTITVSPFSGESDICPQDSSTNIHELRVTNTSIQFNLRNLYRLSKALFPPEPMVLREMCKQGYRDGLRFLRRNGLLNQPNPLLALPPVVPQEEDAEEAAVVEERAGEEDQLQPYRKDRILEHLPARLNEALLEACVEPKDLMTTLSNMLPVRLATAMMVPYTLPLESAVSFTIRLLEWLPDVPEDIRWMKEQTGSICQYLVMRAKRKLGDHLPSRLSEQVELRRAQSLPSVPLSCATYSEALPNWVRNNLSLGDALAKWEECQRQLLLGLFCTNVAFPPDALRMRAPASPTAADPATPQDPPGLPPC
# Experimental: • Figure 1. Structure of compounds 1 to 3 (reference) and compound 4 (atglistatin) and effect on ATGL activity. For determination of lipase activity, lysates of E. coli overexpressing recombinant strep-tagged ATGL and CGI-58 were incubated with a substrate containing radiolabeled [9,10-3H(N)]-triolein. Subsequently, FA were extracted and quantified by liquid scintillation counting. Lysates of cells expressing empty vector were set as blank. Inhibitors were solubilized in DMSO and added at the indicated concentrations. DMSO alone was used as negative control. (A) Structure and IC50 values of compounds 1-4. (B) Dose-dependent inhibition of ATGL in the presence of compound 3 and 4. […] (C) Lineweaver-Burk plots for kinetic analysis of ATGL inhibition. Experiments were performed at varying concentrations of substrate (0.05 - 3 mM) in presence and absence of compound 4 (Atglistatin). […] Data are presented as mean +/-S.D. of triplicate determinations. Data for compound 4 are representative for at least three independent experiments. • Figure 2. Selectivity of Atglistatin. Lipase activity of ATGL, HSL, lipoprotein lipase, and pancreatic lipase was determined using triolein as substrate. MGL activity was detected in the presence of rac-(1,3)-monooleoylglycerol as substrate. Inhibitors were solubilized in DMSO and added at the indicated concentrations. DMSO alone was used as negative control. (A) Dose-dependent inhibition of TG hydrolase activity in WAT lysates obtained from wild-type and ATGL-ko mice. (B) Inhibition of TG hydrolase activity in wild-type WAT lysates by Atglistatin (40 µM) and by the HSL inhibitor Hi 76-0079 (20 µM). (C) Effect of Atglistatin on murine MGL (purified from E. coli), and murine HSL (overexpressed in COS-7 lysates) activity. (D) Effect of Atglistatin on purified bovine LPL (Sigma) and pancreatic lipase (from porcine pancreas, Sigma). Data are presented as mean +/- S.D. of triplicate determinations and are representative for at least three independent experiments (p < 0.05 **, p < 0.01; ***, p < 0.001). • Figure 3 Inhibition of lipolysis in 3T3-L1 adipocytes and WAT organ cultures. (A,B) Differentiated 3T3 cells were preincubated with the indicated concentrations of Atglistatin. Thereafter, the medium was replaced by DMEM containing 2% BSA (fatty acid free), 10 µM forskolin, in the presence or absence of inhibitors. The release of FA (A) and glycerol (B) in the media was determined using commercial kits. Basal FA and glycerol release (not shown) was barely detectable under the applied conditions. Data are presented as mean +/- SD and are representative for 2 independent experiments. (C-F) Effect of Atglistatin on WAT basal (C, D) and forskolin-stimulated (E, F) lipolysis. Adipose tissue pieces (∼15 mg, n=5 for each concentration) of wild-type mice were cultured for 8 h in DMEM containing 2 % FA-free BSA and the indicated concentrations of Atglistatin. Subsequently, the medium was replaced by identical fresh medium and samples were collected after incubation for another hour in the presence or in the absence of 10 µM forskolin. Atglistatin was solubilized in DMSO and DMSO alone was used as negative control. Data are presented as mean +/- S.D. (*, p < 0.05 **, p < 0.01; ***, p < 0.001). • Figure 4 Inhibition of lipolysis in vivo. […] At the indicated timepoints blood was taken retroorbitally and plasma parameters were measured using commercial kits. […] 8 h after gavage blood was taken retroorbitally and plasma parameters were measured using commercial kits. […]
# [1] = test system: TG hydrolase activity in lysates obtained from ATGL-ko animals; assay: TG hydrolase activity in WAT lysates of ATGL-ko mice; format: biochemical; conditions: at concentrations ≥ 20 µM
# Experimental: (§1) • Figure 1. Structure of compounds 1 to 3 (reference) and compound 4 (atglistatin) and effect on ATGL activity. For determination of lipase activity, lysates of E. coli overexpressing recombinant strep-tagged ATGL and CGI-58 were incubated with a substrate containing radiolabeled [9,10-3H(N)]-triolein. Subsequently, FA were extracted and quantified by liquid scintillation counting. Lysates of cells expressing empty vector were set as blank. Inhibitors were solubilized in DMSO and added at the indicated concentrations. DMSO alone was used as negative control. (A) Structure and IC50 values of compounds 1-4. (B) Dose-dependent inhibition of ATGL in the presence of compound 3 and 4. […] (C) Lineweaver-Burk plots for kinetic analysis of ATGL inhibition. Experiments were performed at varying concentrations of substrate (0.05 - 3 mM) in presence and absence of compound 4 (Atglistatin). […] Lipase activity of ATGL, HSL, lipoprotein lipase, and pancreatic lipase was determined using triolein as substrate. MGL activity was detected in the presence of rac-(1,3)-monooleoylglycerol as substrate. […] The release of FA (A) and glycerol (B) in the media was determined using commercial kits. […] At the indicated timepoints blood was taken retroorbitally and plasma parameters were measured using commercial kits. […] 8 h after gavage blood was taken retroorbitally and plasma parameters were measured using commercial kits. […]
# pancreatic lipase = target: T2, pancreatic lipase (Sus scrofa, UniProt P00591); assay: Pancreatic lipase activity, triolein substrate; format: biochemical, porcine; conditions: Fig. 2D
# T2 construct: pancreatic lipase (from porcine pancreas, Sigma); purchased Sigma; host or cells: porcine pancreas
# T2 sequence (P00591 1-450): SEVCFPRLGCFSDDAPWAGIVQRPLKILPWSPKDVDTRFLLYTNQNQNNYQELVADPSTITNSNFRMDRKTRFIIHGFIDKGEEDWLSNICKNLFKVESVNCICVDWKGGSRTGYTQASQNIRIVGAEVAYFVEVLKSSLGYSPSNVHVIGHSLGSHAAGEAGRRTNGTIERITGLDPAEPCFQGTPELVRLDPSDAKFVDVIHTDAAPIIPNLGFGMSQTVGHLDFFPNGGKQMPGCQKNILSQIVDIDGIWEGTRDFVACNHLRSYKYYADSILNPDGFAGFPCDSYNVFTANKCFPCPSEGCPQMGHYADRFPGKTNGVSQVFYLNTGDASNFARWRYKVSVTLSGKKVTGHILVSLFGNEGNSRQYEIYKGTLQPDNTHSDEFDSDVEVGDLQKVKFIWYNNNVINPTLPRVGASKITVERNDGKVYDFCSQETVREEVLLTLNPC
# Experimental: as §1
# 3T3-L1 adipocytes = assay: Forskolin-stimulated lipolysis of differentiated 3T3-L1 adipocytes; format: cell-based, mouse; conditions: 10 µM forskolin-stimulated, dose dependent (0-50 µM)
# Experimental: as §1
# [2] = Inhibition of lipolysis in vivo, oral gavage in fasted mice, plasma parameters; design: species or system C57BI/6J mice
# Experimental: • Figure 1. Structure of compounds 1 to 3 (reference) and compound 4 (atglistatin) and effect on ATGL activity. For determination of lipase activity, lysates of E. coli overexpressing recombinant strep-tagged ATGL and CGI-58 were incubated with a substrate containing radiolabeled [9,10-3H(N)]-triolein. Subsequently, FA were extracted and quantified by liquid scintillation counting. Lysates of cells expressing empty vector were set as blank. Inhibitors were solubilized in DMSO and added at the indicated concentrations. DMSO alone was used as negative control. (A) Structure and IC50 values of compounds 1-4. (B) Dose-dependent inhibition of ATGL in the presence of compound 3 and 4. […] (C) Lineweaver-Burk plots for kinetic analysis of ATGL inhibition. Experiments were performed at varying concentrations of substrate (0.05 - 3 mM) in presence and absence of compound 4 (Atglistatin). […] Data are presented as mean +/-S.D. of triplicate determinations. Data for compound 4 are representative for at least three independent experiments. • Figure 2. Selectivity of Atglistatin. Lipase activity of ATGL, HSL, lipoprotein lipase, and pancreatic lipase was determined using triolein as substrate. MGL activity was detected in the presence of rac-(1,3)-monooleoylglycerol as substrate. Inhibitors were solubilized in DMSO and added at the indicated concentrations. DMSO alone was used as negative control. (A) Dose-dependent inhibition of TG hydrolase activity in WAT lysates obtained from wild-type and ATGL-ko mice. (B) Inhibition of TG hydrolase activity in wild-type WAT lysates by Atglistatin (40 µM) and by the HSL inhibitor Hi 76-0079 (20 µM). (C) Effect of Atglistatin on murine MGL (purified from E. coli), and murine HSL (overexpressed in COS-7 lysates) activity. (D) Effect of Atglistatin on purified bovine LPL (Sigma) and pancreatic lipase (from porcine pancreas, Sigma). Data are presented as mean +/- S.D. of triplicate determinations and are representative for at least three independent experiments (p < 0.05 **, p < 0.01; ***, p < 0.001). • Figure 3 Inhibition of lipolysis in 3T3-L1 adipocytes and WAT organ cultures. (A,B) Differentiated 3T3 cells were preincubated with the indicated concentrations of Atglistatin. Thereafter, the medium was replaced by DMEM containing 2% BSA (fatty acid free), 10 µM forskolin, in the presence or absence of inhibitors. The release of FA (A) and glycerol (B) in the media was determined using commercial kits. Basal FA and glycerol release (not shown) was barely detectable under the applied conditions. Data are presented as mean +/- SD and are representative for 2 independent experiments. (C-F) Effect of Atglistatin on WAT basal (C, D) and forskolin-stimulated (E, F) lipolysis. Adipose tissue pieces (∼15 mg, n=5 for each concentration) of wild-type mice were cultured for 8 h in DMEM containing 2 % FA-free BSA and the indicated concentrations of Atglistatin. Subsequently, the medium was replaced by identical fresh medium and samples were collected after incubation for another hour in the presence or in the absence of 10 µM forskolin. Atglistatin was solubilized in DMSO and DMSO alone was used as negative control. Data are presented as mean +/- S.D. (*, p < 0.05 **, p < 0.01; ***, p < 0.001). • Figure 4 Inhibition of lipolysis in vivo. (A,B) Time dependent effect of Atglistatin on plasma free fatty acids (FFA) and glycerol levels of mice. C57BI6 mice were fasted overnight (ON) and received an oral gavage containing 100 µmol/kg Atglistatin dissolved in olive oil, or olive oil as control. At the indicated timepoints blood was taken retroorbitally and plasma parameters were measured using commercial kits. (C,D) Dose dependent effect of Atglistatin on plasma FFA and glycerol levels of mice. C57BI6 mice were fasted ON and received an oral gavage containing 0, 50, 100, or 200 µmol/kg Atglistatin dissolved in olive oil, or olive oil as control. 8 h after gavage blood was taken retroorbitally and plasma parameters were measured using commercial kits. […]
# [3] = plasma, 200 µmol/kg oral gavage, after 8 h, mean ± S.D., n = 7
# [4] = up to, 50, 100 or 200 µmol/kg oral gavage, 8 h after gavage
smiles,measurement,setting,value
"CN(C)C(=O)Nc1cccc(-c2ccc(N(C)C)cc2)c1 [Atglistatin, atglistatin]",Ki,recombinant ATGL,500 ± 200 nM
same,mechanism of ATGL inhibition,"recombinant ATGL; increase in apparent Km, unchanged Vmax, substrate 0.05 - 3 mM",competitive inhibitor
same,IC50,recombinant ATGL; inhibition of the activity of recombinant ATGL,700 nM
same,effect on the residual TG hydrolase activity in ATGL-ko lysates,[1],moderate but significant effect
same,effect on pancreatic lipase,pancreatic lipase,only minor effects
same,inhibition of FA release,3T3-L1 adipocytes,almost complete inhibition
same,inhibition of glycerol release,3T3-L1 adipocytes,~90%
same,"plasma levels for glycerol, time course","[2]; 100 µmol/kg oral gavage in olive oil, between 4 h and 8 h after gavage",time dependent decrease
same,"plasma levels for FA, time course","[2]; 100 µmol/kg oral gavage in olive oil, between 4 h and 12 h after gavage",time dependent decrease
same,FFA,[2]; [3],0.53 ± 0.05*** mmol/L
same,Triglycerides,[2]; [3],0.33 ± 0.14** mmol/L
same,dose-dependent decrease in plasma FA levels,[2]; [4],up to 50%
same,dose-dependent decrease in plasma glycerol levels,[2]; [4],≤ 70%
